Reference: US10294202B2, “Pyrrolidinones as herbicides” (FMC Corporation, priority 2013, dated 2019)

Columns and labels:
rice = experiment: Test B flooded paddy test; assay type: in vivo, Oryza sativa; conditions: 500 g ai/ha, Flood; scale of 0 to 100 where 0 is no effect and 100 is complete control
Outline: (§1)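 Scored visually 0–100 (0 no effect, 100 complete control) versus controls after 13 to 15 greenhouse days. Treatment: compound added to paddy water kept 3 cm above soil, on 2-leaf-stage plants.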

nutsedge, yellow = experiment: Test C pre-/postemergence herbicide test; assay type: in vivo, Cyperus esculentus
Outline: (§2)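 Pre- and postemergence greenhouse screen. Preemergence treatment went onto freshly planted seeds in loam–sand soil; postemergence treatment went onto plants 2 to 18 cm tall at the 1- to 4-leaf stage in sphagnum peat/vermiculite medium. Scoring at 13 to 15 days used a 0–100 control scale.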

pigweed = experiment: Test A pre-/postemergence herbicide test; assay type: in vivo, Amaranthus retroflexus; conditions: for Plant response rating, Pigweed: 0 to 100 scale
Outline: (§3)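 Visual injury ratings, 0 = no effect, 100 = complete control, taken ~10 days after treatment against untreated greenhouse controls. Preemergence: directed soil spray onto seeded loam/sand pots. Postemergence: spray onto plants at one- to two-leaf stage, 2–10 cm tall.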

soybean = experiment: Test C pre-/postemergence herbicide test; assay type: in vivo, Glycine max
Outline: as §2

ducksalad = experiment: Test B flooded paddy test; assay type: in vivo, Heteranthera limosa; conditions: 500 g ai/ha, Flood; scale of 0 to 100 where 0 is no effect and 100 is complete control
Outline: as §1

corn [1] = experiment: Test A pre-/postemergence herbicide test; assay type: in vivo, Zea mays; conditions: Postemergence
Outline: as §3

corn [2] = experiment: Test C pre-/postemergence herbicide test; assay type: in vivo, Zea mays
Outline: as §2

barnyardgrass [3] = experiment: Test B flooded paddy test; assay type: in vivo, Echinochloa crus-galli; conditions: 500 g ai/ha, Flood; scale of 0 to 100 where 0 is no effect and 100 is complete control
Outline: as §1

foxtail, giant = experiment: Test C pre-/postemergence herbicide test; assay type: in vivo, Setaria faberii
Outline: as §2

barnyardgrass [4] = experiment: Test C pre-/postemergence herbicide test; assay type: in vivo, Echinochloa crus-galli
Outline: as §2

oilseed rape = experiment: Test C pre-/postemergence herbicide test; assay type: in vivo, Brassica napus
Outline: as §2

barnyardgrass [5] = experiment: Test A pre-/postemergence herbicide test; assay type: in vivo, Echinochloa crus-galli
Outline: as §3

[6] = Postemergence, 31 g ai/ha, scale 0 to 100 (0 no effect, 100 complete control)
[7] = Postemergence, 62 g ai/ha, scale 0 (no effect) to 100 (complete control)
[8] = Postemergence, 125 g ai/ha, scale 0 to 100 (0 no effect, 100 complete control)
[9] = Postemergence, 250 g ai/ha, scale 0 to 100 (0 no effect, 100 complete control)
[10] = Preemergence, 31 g ai/ha, scale 0 to 100, 0 is no effect and 100 is complete control
[11] = Preemergence, 62 g ai/ha, scale 0 to 100
[12] = Preemergence, 125 g ai/ha, scale 0 to 100 (0 no effect, 100 complete control)

In the case of `O=C1NCC(c2ccc(F)cc2)C1C(=O)Nc1cccc(F)c1F` (racemic) [Compound 119], the “Plant response rating, Rice” value (rice) is reported as 10, the “Plant response rating, Nutsedge, Yellow” value (nutsedge, yellow; [6]) is reported as 0 and the “Plant response rating, Nutsedge, Yellow” value (nutsedge, yellow; [7]) is reported as 0. For the same compound, the “Plant response rating, Nutsedge, Yellow” value (nutsedge, yellow; [8]) was 0, the “Plant response rating, Nutsedge, Yellow” value (nutsedge, yellow; [9]) was 0 and the “Nutsedge, Yellow plant response rating” value (nutsedge, yellow; [10]) was 0. For the same compound, the “Plant response rating, Nutsedge, Yellow” value (nutsedge, yellow; [11]) was 0, the “Plant response rating, Nutsedge, Yellow” value (nutsedge, yellow; [12]) was 0 and the “Plant response rating (scale of 0 to 100), Nutsedge, Yellow” value (nutsedge, yellow; Preemergence, 250 g ai/ha) was 0. For the same compound, the “Plant response rating, Pigweed” value (pigweed; 125 g ai/ha, visual rating, 0 no effect, 100 complete control, approximately 10 days, preemergence) was 30, the “Plant response rating, Pigweed” value (pigweed; Postemergence, 125 g ai/ha, 0 no effect, 100 complete control) was 30 and the “Pigweed plant response rating (0 to 100 scale, 0 is no effect, 100 is complete control)” value (pigweed; Postemergence, 500 g ai/ha) was 30. For the same compound, the “Plant response rating, Pigweed” value (pigweed; preemergence, 500 g ai/ha) was 40, the “Plant response rating, Soybean” value (soybean; [6]) was 5 and the “Plant response rating, Soybean” value (soybean; [7]) was 5. For the same compound, the “Plant response rating, Soybean” value (soybean; [8]) was 0, the “Plant response rating, Soybean” value (soybean; [9]) was 5 and the “Soybean plant response rating” value (soybean; [10]) was 0. For the same compound, the “Plant response rating, Soybean” value (soybean; [11]) was 20, the “Plant response rating, Soybean” value (soybean; [12]) was 0 and the “Plant response rating (scale of 0 to 100), Soybean” value (soybean; Preemergence, 250 g ai/ha) was 0. The “Plant response rating, Ducksalad” value (ducksalad) was 100, the “Plant response rating, Corn” value (corn [1]; 125 g ai/ha, 0 to 100 scale, 0 no effect, 100 complete control) was 30 and the “Plant response rating, Corn” value (corn [1]; 500 g ai/ha, 0 to 100 scale (0 no effect, 100 complete control)) was 70. The “Plant response rating, Corn” value (corn [2]; [6]) was 0, the “Plant response rating, Corn” value (corn [2]; [7]) was 0 and the “Plant response rating, Corn” value (corn [2]; [8]) was 0. The “Plant response rating, Corn” value (corn [2]; [9]) was 5, the “Corn plant response rating” value (corn [2]; [10]) was 0 and the “Plant response rating, Corn” value (corn [2]; [11]) was 0. The “Plant response rating, Corn” value (corn [2]; [12]) was 15, the “Plant response rating (scale of 0 to 100), Corn” value (corn [2]; Preemergence, 250 g ai/ha) was 45 and the “Plant response rating, Barnyardgrass” value (barnyardgrass [3]) was 80. For the same compound, the “Plant response rating, Foxtail, Giant” value (foxtail, giant; [6]) was 10, the “Plant response rating, Foxtail, Giant” value (foxtail, giant; [7]) was 25 and the “Plant response rating, Foxtail, Giant” value (foxtail, giant; [8]) was 85. The “Plant response rating, Foxtail, Giant” value (foxtail, giant; [9]) was 90, the “Foxtail, Giant plant response rating” value (foxtail, giant; [10]) was 90 and the “Plant response rating, Foxtail, Giant” value (foxtail, giant; [11]) was 90. The “Plant response rating, Foxtail, Giant” value (foxtail, giant; [12]) was 98, the “Plant response rating (scale of 0 to 100), Foxtail, Giant” value (foxtail, giant; Preemergence, 250 g ai/ha) was 98 and the “Plant response rating, Barnyardgrass” value (barnyardgrass [4]; [6]) was 25. The “Plant response rating, Barnyardgrass” value (barnyardgrass [4]; [7]) was 40, the “Plant response rating, Barnyardgrass” value (barnyardgrass [4]; [8]) was 65 and the “Plant response rating, Barnyardgrass” value (barnyardgrass [4]; [9]) was 80. The “Barnyardgrass plant response rating” value (barnyardgrass [4]; [10]) was 80, the “Plant response rating, Barnyardgrass” value (barnyardgrass [4]; [11]) was 90 and the “Plant response rating, Barnyardgrass” value (barnyardgrass [4]; [12]) was 95. For the same compound, the “Plant response rating (scale of 0 to 100; 0 is no effect, 100 is complete control), Barnyardgrass” value (barnyardgrass [4]; Preemergence, 250 g ai/ha) was 98, the “Plant response rating, Oilseed Rape” value (oilseed rape; [6]) was 0 and the “Plant response rating, Oilseed Rape” value (oilseed rape; [7]) was 0. For the same compound, the “Plant response rating, Oilseed Rape” value (oilseed rape; [8]) was 0, the “Plant response rating, Oilseed Rape” value (oilseed rape; [9]) was 5 and the “Oilseed Rape plant response rating” value (oilseed rape; [10]) was 0. The “Plant response rating, Oilseed Rape” value (oilseed rape; [11]) was 5, the “Plant response rating, Oilseed Rape” value (oilseed rape; [12]) was 80 and the “Plant response rating (scale of 0 to 100), Oilseed Rape” value (oilseed rape; Preemergence, 250 g ai/ha) was 80. For the same compound, the “Plant response rating, Barnyardgrass” value (barnyardgrass [5]; 125 g ai/ha, visual rating, 0 to 100 scale, 0 no effect, 100 complete control, approximately 10 days, preemergence) was 90, the “Plant response rating, Barnyardgrass” value (barnyardgrass [5]; Postemergence, 125 g ai/ha, 0 to 100 scale, 0 no effect, 100 complete control) was 90 and the “Plant response rating, Barnyardgrass” value (barnyardgrass [5]; Postemergence, 500 g ai/ha, 0 to 100 scale (0 no effect, 100 complete control)) was 90. For the same compound, the “Plant response rating, Barnyardgrass” value (barnyardgrass [5]; preemergence, 500 g ai/ha, 0 to 100 scale (0 no effect, 100 complete control)) was 90.
